By IC90 is commonly meant the concentration at which the effect reaches the 90% level.

In brackets after ≈: the same amount, converted by molar mass.

The values below come from PubChem BioAssay AID1332 (Southern Research Institute, 2008).

The test system of this test is M. tuberculosis H37Rv growth inhibition. As to the kind of experiment: Mycobacterium tuberculosis H37Rv growth inhibition, confirmatory dose response, cytotoxicity (AID 1332).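 Further: bacteria incubated 7 days before adding Alamar blue readout reagent.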
Take `CCN(CC)CCOc1ccc(/C(=C(/Cl)c2ccccc2)c2ccccc2)cc1`: the IC90 is 6.13 µg/mL (≈ 15.1 µM). As for `Cc1cccc(C)c1NC(=O)CN1CCN(CCCC(c2ccc(F)cc2)c2ccc(F)cc2)CC1`, the figure is 5.27 µg/mL (≈ 10.7 µM). The value for `Clc1ccc(C(Cn2ccnc2)OCc2c(Cl)cccc2Cl)c(Cl)c1` (stereo not given) was 2.51 µg/mL (≈ 6.04 µM). The value for `O=C(N[C@H](CO)[C@H](O)c1ccc([N+](=O)[O-])cc1)C(Cl)Cl` was 1.06 µg/mL (≈ 3.29 µM); that for `Nc1ccc(S(=O)(=O)Nc2ccnn2-c2ccccc2)cc1` was 12.8 µg/mL (≈ 40.7 µM). For the compound `C=C(NC(=O)C(=C)NC(=O)c1csc(C2=N[C@H]3c4csc(n4)[C@H]4NC(=O)c5csc(n5)[C@H]([C@@](C)(O)[C@@H](C)O)NC(=O)[C@H]5CSC(=N5)/C(=C\C)NC(=O)[C@H]([C@@H](C)O)NC(=O)c5csc(n5)[C@]3(CC2)NC(=O)[C@H](C)NC(=O)C(=C)NC(=O)[C@H](C)NC(=O)[C@H](C(C)CC)N[C@@H]2C=Cc3c([C@H](C)O)cc(nc3[C@H]2O)C(=O)O[C@@H]4C)n1)C(N)=O` (stereo not given in full), the IC90 was 0.357 µg/mL (≈ 0.214 µM).

As for `COc1cc2cc3c4cc(OC)c(OC)cc4cc[n+]3c(C)c2cc1OC`, the IC90 was 2.13 µg/mL.

On to `CN(C)[C@@H]1C(=O)C(C(N)=O)=C(O)[C@@]2(O)C(=O)C3=C(O)c4c(O)cccc4[C@@](C)(O)[C@H]3C[C@@H]12`, for which the IC90 was 6.54 µg/mL (≈ 14.7 µM). Take `COc1ccc(CCN2CCC(Nc3nc4ccccc4n3Cc3ccc(F)cc3)CC2)cc1`: the IC90 was 6.79 µg/mL (≈ 14.8 µM). For `Clc1ccc(CCC(Cn2ccnc2)Sc2c(Cl)cccc2Cl)cc1` (stereo not given), the IC90 was 1.61 µg/mL (≈ 3.9 µM).

For `C=C1C(=O)O[C@@H]2[C@H]3O[C@]3(C)CC/C=C(\C)CC[C@@H]12`, the IC90 is 1.43 µg/mL (≈ 5.76 µM). As for `NNC(=O)c1ccncc1`, the figure is 10.4 µg/mL (≈ 75.5 µM); as for `O=C(N/N=C/c1ccc([N+](=O)[O-])o1)c1ccc(O)cc1`, 1.54 µg/mL (≈ 5.58 µM). The value for `O=C(O)c1cn(C2CC2)c2cc(N3CCNCC3)c(F)cc2c1=O` was 0.042 µg/mL (≈ 0.127 µM). As for `CC1COc2c(N3CCN(C)CC3)c(F)cc3c(=O)c(C(=O)O)cn1c23` (stereo not given), the figure is 0.067 µg/mL (≈ 0.185 µM); as for `CN(C)[C@@H]1C(=O)C(C(N)=O)=C(O)[C@@]2(O)C(=O)C3=C(O)c4c(O)ccc(Cl)c4[C@@H](O)[C@H]3C[C@@H]12`, 12.6 µg/mL (≈ 27.1 µM). Turning to `CCCCCCCCNC(C)C(O)c1ccc(SC(C)C)cc1` (stereo not given), the IC90 was 2.25 µg/mL (≈ 6.67 µM).

Consider `COc1ccc(C[C@H](N)C(=O)N[C@H]2[C@@H](O)[C@H](n3cnc4c(N(C)C)ncnc43)O[C@@H]2CO)cc1`, for which the IC90 was 1.75 µg/mL (≈ 3.71 µM). As for `CCCCC(CC)CN1CN(CC(CC)CCCC)CC(C)(N)C1` (stereo not given), the figure is 6.85 µg/mL (≈ 20.2 µM); as for `Cc1c2ccncc2c(C)c2c1[nH]c1ccccc12`, 0.17 µg/mL (≈ 0.69 µM); as for `CN(C)c1ccc(O)c2c1CC1CC3[C@@H](N(C)C)C(=O)C(C(N)=O)=C(O)[C@]3(O)C(=O)C1=C2O` (stereo not given in full), 2.04 µg/mL (≈ 4.46 µM). Take `O=C1NCN(c2ccccc2)C12CCN(CCCC(c1ccc(F)cc1)c1ccc(F)cc1)CC2`: the IC90 is 2.64 µg/mL (≈ 5.56 µM). The value for `CO[C@@H]1[C@@H](OC(N)=O)[C@@H](O)C(Oc2ccc3c(O)c(NC(=O)c4ccc(O)c(CC=C(C)C)c4)c(=O)oc3c2C)OC1(C)C` (stereo not given in full) was 4.96 µg/mL (≈ 8.1 µM); that for `CNc1ncnc2c1ncn2[C@@H]1O[C@H](CO)[C@@H](O)[C@H]1O` was 0.822 µg/mL (≈ 2.92 µM); that for `Cc1cccc(CN2CCN(C(c3ccccc3)c3ccc(Cl)cc3)CC2)c1` (stereo not given) was 7.72 µg/mL (≈ 19.7 µM). The value for `Clc1ccc(COC(Cn2ccnc2)c2ccc(Cl)cc2Cl)c(Cl)c1` (stereo not given) was 1.82 µg/mL (≈ 4.38 µM).

As to `N=C(N)c1ccc(OCCCCCOc2ccc(C(=N)N)cc2)cc1`, the IC90 is 1.68 µg/mL (≈ 4.93 µM). As for `CCn1cc(C(=O)O)c(=O)c2cc(F)c(N3CCNCC3)nc21`, the figure is 4.1 µg/mL (≈ 12.8 µM). As for `COc1cc(NC(C)CCCN)c2ncccc2c1` (stereo not given), the figure is 14.5 µg/mL (≈ 55.9 µM); as for `Clc1ccc(C(Cn2ccnc2)OCc2csc3c(Cl)cccc23)c(Cl)c1` (stereo not given), 3.41 µg/mL (≈ 7.8 µM). For `COc1cccc2c1C(=O)c1c(O)c3c(c(O)c1C2=O)C[C@@](O)(C(C)=O)C[C@@H]3O[C@H]1C[C@H](N)[C@H](O)[C@H](C)O1`, the IC90 is 0.169 µg/mL (≈ 0.32 µM). The value for `C(=C\c1ccccc1)/CN1CCN(C(c2ccccc2)c2ccccc2)CC1` was 7.6 µg/mL (≈ 20.6 µM); that for `CC(C)N=c1cc2n(-c3ccc(Cl)cc3)c3ccccc3nc-2cc1Nc1ccc(Cl)cc1` was 0.04 µg/mL (≈ 0.0845 µM); that for `Cc1cc(C=Cc2ccc3cc(N(C)C)ccc3[n+]2C)c(C)n1-c1ccccc1` was 0.195 µg/mL.

With `CN[C@@H]1[C@@H](O)[C@@H](O[C@@H]2[C@@H](O)[C@H](O[C@H]3O[C@H]([C@@H](C)N)CC[C@H]3N)[C@@H](N)C[C@H]2N)OC[C@]1(C)O`, the IC90 is 0.859 µg/mL (≈ 1.85 µM).
